The text below walks through data of paper PMC8228819, “Comparison of a Short Linear Antimicrobial Peptide with Its Disulfide-Cyclized and Cyclotide-Grafted Variants against Clinically Relevant Pathogens” (Microorganisms, 2021).

In data set [1] the test system is Staphylococcus aureus, epidemic methicillin-resistant EMRSA-15. In kind it is cell-based. The protocol:
(§1) The following strains were used in this study: Escherichia coli, ATCC 25922, Staphylococcus aureus, epidemic methicillin-resistant EMRSA-15, Klebsiella pneumoniae, clinical isolate from St George’s, University of London (SGUL, London, UK), Acinetobacter baumannii, clinical isolate from SGUL, Pseudomonas aeruginosa, PA01 wildtype strain, and Enterococcus faecalis, vancomycin-resistant ATCC 51299.
(§2) The minimal inhibitory concentration (MIC) was determined in a microdilution assay using Mueller–Hinton (MH) or Brain Heart Infusion Broth (BHI) broth following a previously published protocol. Briefly, a twofold serial dilution of the antibiotics and peptides were prepared and added to a bacteria solution, resulting in 2–5 10^5 CFU/mL. The microtiter plates (polypropylene, Corning, Corning, NY, USA) were incubated for 18 h at 37 °C and MICs were taken visually. Based on our experience with proline rich peptides, their low activity in Mueller–Hinton broth, and their strong activity in diluted broth, we decided to also measure the activity of the peptide set in a 1/5 dilution of the broth. MICs in the presence of serum were established using human serum (Zen-Bio, Durham, NC, USA) and heat-inactivated serum (Sigma-Aldrich, St. Louis, MO, USA). A total of 20% (v/v) of each human serum was mixed with bacterial solution and added to predetermined concentrations of antibiotics and peptides, resulting in a final 10% (v/v) concentration of serum and 2–5 × 10^5 bacteria.

The next data set can be described thus: Serum stability assay. Particulars: 37 °C, UPLC-MS; for half-life at 100 μM: 100% human serum (Sigma-Aldrich, human male AB plasma), 100 μM peptide, 0-24 h, TFA precipitation, triplicates; for Peptide state after one hour in human serum: 100% human serum, 100 μM, 1 h. It counts as in vitro ADME, human. On the procedure: (§3) Serum stability assays were performed in 100% human serum (Sigma-Aldrich, St. Louis MO, USA, human male AB plasma). Serum was centrifuged to remove lipids and incubated with the peptides at 100 μM for 0, 0.5, 1, 3, 6, and 24 h at 37 °C. Serum proteins were precipitated by adding 3 μL of TFA to 40 μL of peptide – serum sample (final TFA 7%). The remaining supernatant was diluted with 50:50 solvent A/B. The amount of peptide remaining (%) was quantified by UPLC-MS analysis. For pH stability experiments, peptides were incubated at a concentration of 20 μM at pH 1.2 and 7.5 for 24 h, and stability was monitored by UPLC analysis.

Data set [2] deals with Klebsiella pneumoniae, clinical isolate from St George's, University of London. In kind it is cell-based. The protocol: as §1, §2
Data set [3] concerns Enterococcus faecalis, vancomycin-resistant ATCC 51299. In kind it is cell-based. On the procedure: as §1, §2
Data set [4] concerns Escherichia coli, ATCC 25922. In kind it is cell-based. Particulars: triplicate, modal value. On the procedure: as §1, §2
The test system of data set [5] is Acinetobacter baumannii, clinical isolate from SGUL. In kind it is cell-based. Conditions: triplicate, modal value. On the procedure: as §1, §2
The subject of data set [6] is Pseudomonas aeruginosa, PA01 wildtype strain. It counts as cell-based. Conditions: triplicate, modal value. On the procedure:
as §1, §2

A further data set in a line: pH stability. It counts as physicochemical. Conditions: 20 μM, pH 1.2 and 7.5, 24 h, UPLC. On the procedure:
as §3

Data set [7] relates to S. enterica serovar Typhimurium LT2. Particulars: cited from earlier work. An excerpt:
(§4) Several naturally occurring cyclotide sequences have been proposed to have antimicrobial activity. However, the cyclotides tested in that study were synthetically made and had rather weak activity against a range of common pathogenic bacteria, including Escherichia coli and Staphylococcus aureus, but were only active in low salt media, losing all activity under physiological conditions. A number of other studies have also reported antibacterial activity for some natural cyclotides or synthetic derivatives of them. For example, fractions comprised of cyclotid ...

The subject of another data set is E. coli. Particulars: cited from earlier work.
Source text: as §4

Another data set concerns Staphylococcus aureus. Conditions: cited from earlier work.
Source text: as §4

Where [8] appears, read: MH, single measurement (asterisk).
[9] abbreviates: 1/5 MH + 10% human serum, triplicate, modal value.
Setting [10] is: 1/5 MH, triplicate, modal value.
The mark [11] stands for this setting: 1/5 MH + 10% heat inactivated human serum, triplicate, modal value.
Where [12] appears, read: MH + 10% human serum, triplicate, modal value.

Converted amounts (≈) assume the structure as drawn. Read-outs that look alike come from different tables or passages of the source. Marks after values point to notes of the source that are not given here. Bridge positions count the residues as written; N and C are the ends. Square brackets hold non-standard residues; d marks the D form. Ends that are not written are not given here. Peptide text beside a SMILES is read from it. βAla = NCCC(=O)O Where only a bound is given, the exact number is not on record here.

The term MIC denotes the lowest concentration found to suppress growth. As to `CC[C@H](C)[C@H](NC(=O)CN)C(=O)NCC(=O)N[C@@H](C)C(=O)N[C@H](C(=O)N[C@@H](CC(C)C)C(=O)N[C@@H](CCCCN)C(=O)N[C@H](C(=O)N[C@@H](CC(C)C)C(=O)N[C@H](C(=O)N[C@H](C(=O)NCC(=O)N[C@@H](CC(C)C)C(=O)N1CCC[C@H]1C(=O)N[C@@H](C)C(=O)N[C@@H](CC(C)C)C(=O)N[C@H](C(=O)N[C@@H](CO)C(=O)N[C@@H](Cc1c[nH]c2ccccc12)C(=O)N[C@H](C(=O)N[C@@H](CCCCN)C(=O)N[C@@H](CCCNC(=N)N)C(=O)N[C@@H](CCCCN)C(=O)N[C@@H](CCCNC(=N)N)C(=O)N[C@@H](CCC(N)=O)C(=O)N[C@@H](CCC(N)=O)C(N)=O)[C@@H](C)CC)[C@@H](C)CC)[C@@H](C)O)[C@@H](C)O)C(C)C)C(C)C` [Melittin, reference compound], the MIC is 1.4 µM in [1] (1/5 MH + 10% heat inactivated human serum, single measurement (asterisk)); 1.4 µM in data set [1] (1/5 MH + 10% human serum, single measurement (asterisk)); 0.7 µM (≈ 1.99 µg/mL) in [1] (1/5 MH, single measurement (asterisk)); 4 µM (≈ 11.4 µg/mL) in data set [1] (setting [8]).
The term half-life denotes the time needed for the level to fall by half in the phase considered. In the case of `CC[C@H](C)[C@@H]1NC(=O)[C@H](Cc2c[nH]c3ccccc23)NC(=O)[C@H](CCCNC(=N)N)NC(=O)[C@H](C(C)C)NC(=O)[C@H](CCCNC(=N)N)NC(=O)[C@H](CCCNC(=N)N)NC(=O)[C@H](CCCCN)NC(=O)CCNC(=O)CCNC(=O)[C@@H](N)CSSC[C@@H](C(=O)O)NC(=O)CCNC(=O)CCNC(=O)[C@H](Cc2c[nH]c3ccccc23)NC(=O)[C@H]([C@@H](C)CC)NC1=O` [c-optP7] (H-C[βAla][βAla]KRRVRWIIW[βAla][βAla]C-OH; disulfide 1-15), the half-life at 100 μM in the data set “Serum stability assay” came to 9 min. In addition, the “Peptide state after one hour in human serum” value in the data set “Serum stability assay” is recorded as “fully degraded”. Further, the minimum inhibitory concentration (MIC) in data set [2] (setting [9]) was 142 µM; in data set [2] (setting [10]), 71 µM (≈ 128 µg/mL); in data set [2] (setting [8]) it was >142 * µM; in [3] (1/5 BHI + 10% human serum, triplicate, modal value), greater than 142 µM; in data set [3] (1/5 BHI, triplicate, modal value), 18 µM (≈ 32.4 µg/mL); in data set [3] (BHI, single measurement (asterisk)), >142 * µM. For the same compound, the MIC in data set [4] (1/5 MH + 10% heat inactivated human serum) was 35 µM; in data set [4] (1/5 MH + 10% human serum), 18 µM; in data set [4] (1/5 MH), 4 to 9 µM; in [4] (MH + 10% human serum) it was greater than 142 µM; in data set [4] (MH) it was 71 µM (≈ 128 µg/mL); in [1] (setting [11]), greater than 142 µM. In addition, the MIC in data set [1] (setting [9]) is greater than 142 µM; in data set [1] (setting [10]), 18 µM (≈ 32.4 µg/mL); in data set [1] (setting [12]), greater than 142 µM; in data set [1] (MH, triplicate, modal value) it was 142 µM (≈ 256 µg/mL); in [5] (1/5 MH + 10% human serum), 71 µM; in [5] (1/5 MH), 4 µM (≈ 7.2 µg/mL). The MIC in [6] (1/5 MH + 10% human serum) was 35 µM; in [6] (1/5 MH), 9 µM (≈ 16.2 µg/mL); in data set [6] (MH + 10% human serum) it was greater than 142 µM; in data set [6] (MH, microdilution, 18 h 37 °C, visual), 142 µM (≈ 256 µg/mL). For the same compound, in “pH stability”, the pH stability entry is “exceptional stability over 24 h”.
For KRRVRWIIW-NH2 [optP7], in the data set “Serum stability assay”, the half-life at 100 μM is 13 min. The “Peptide state after one hour in human serum” value in the data set “Serum stability assay” is reported as “fully degraded”. Besides, the MIC in [2] (clinical isolate from St George's, University of London, 18 h) is reported as 1.5 µM; in data set [3] (ATCC 51299, 18 h), 0.8 µM; in [1] (setting [11]), 6 µM; in data set [1] (setting [9]), 6 µM; in data set [1] (setting [10]), 1.5 µM; in data set [1] (setting [12]), 49 µM. The compound also showed an MIC in data set [1] (MH, triplicate, modal value) of 6 µM. For the same compound, the pH stability entry in the data set “pH stability” is on record as “exceptional stability over 24 h”.
Consider cycloviolacin O2, for which the MIC in data set [7] is roughly 9 µM; in the data set with E. coli it was 2 µM; in the data set on Staphylococcus aureus, greater than 50 µM.
